Molecular target: T1, OpuCA (Staphylococcus aureus, UniProt A0A0H2XHM3)
T1 sequence (A0A0H2XHM3 1-408): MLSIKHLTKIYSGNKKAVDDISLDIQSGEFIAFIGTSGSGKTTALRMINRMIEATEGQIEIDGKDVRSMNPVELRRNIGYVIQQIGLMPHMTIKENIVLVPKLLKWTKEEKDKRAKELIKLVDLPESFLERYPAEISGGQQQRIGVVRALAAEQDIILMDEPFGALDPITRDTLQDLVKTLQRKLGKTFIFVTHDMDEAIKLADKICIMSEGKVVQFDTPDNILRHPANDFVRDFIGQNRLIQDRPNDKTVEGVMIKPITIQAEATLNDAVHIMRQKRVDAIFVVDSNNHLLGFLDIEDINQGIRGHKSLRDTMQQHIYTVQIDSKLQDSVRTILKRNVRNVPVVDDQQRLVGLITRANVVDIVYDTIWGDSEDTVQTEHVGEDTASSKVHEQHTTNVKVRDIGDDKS
Type: binding

Nc1ncnc2c1ncn2[C@@H]1O[C@@H]2COP(=O)(O)O[C@H]3[C@@H](O)[C@H](n4cnc5c(N)ncnc54)O[C@@H]3COP(=O)(O)O[C@H]2[C@H]1O [c-di-AMP]
Kd: 2460 ± 140 nM

Source: article PMC5248971 (Science signaling, 2016)
